Results as given in US20190328900A1, “ANTIBODY-DRUG CONJUGATES AND THERAPEUTIC METHODS USING THE SAME” (priority 2016, published 2019).

What was measured:
[1] = test system: pseudotyped virus (NL4-3 provirus with various HIV gp160 envelope clones); experiment: Pseudotyped virus assay (PSV), luciferase reporter, U373 cells expressing human CD4 and CXCR4 or CCR5; assay type: cell-based
Source text: A pseudotyped virus assay (PSV) was used to assess the potency of various HIV entry inhibitors. Replication defective virus was produced by co-transfection of a plasmid containing an NL4-3 provirus [containing a mutation in the envelope open reading frame (ORF) and a luciferase reporter gene replacing the nef ORF] and a CMV-promoter expression plasmid containing an ORF for various HIV gp160 envelope clones. The harvested virus was stored at −80C in small aliquots and the titer of the virus measured to produce a robust signal for antiviral assays.
The PSV assay was performed by using U373 cells stably transformed to express human CD4, the primary receptor for HIV entry and either human CXCR4 or human CCR5 which are the co-receptors required for HIV entry as target cells for infection. Molecules of interest (including, but not limited to small molecule inhibitors of HIV, neutralizing antibodies of HIV, antibody-drug conjugate inhibitors of HIV, peptide inhibitors of HIV, and various controls) were diluted into tissue culture media and diluted via serial dilution to create a dose range of concentrations. This dose-range was applied to U373 cells and the pre-made pseudotyped virus added. The amount of luciferase signal produced after 3 days of culture was used to reflect the level of pseudotyped virus infection.

HIV strains/subtypes = conditions: cited from earlier work

Row | Molecule | IC50 ([1]; Human immunodeficiency virus 1, NL43, Table 14, first IC50 column (no further heading)) [nM] | IC50 ([1]; Human immunodeficiency virus 1, NL43, Table 14, second IC50 column (no further heading)) [nM] | IC50 ([1]; Human immunodeficiency virus 1, NL43, Table 14, third IC50 column (no further heading)) [nM] | HIV strains/subtypes neutralized (HIV strains/subtypes) [%]
1 | O=C1Nc2ccc(Cl)cc2[C@@](C#CC2CC2)(C(F)(F)F)O1 [EFV, Efavirenz] | 1.9 | 1.53 | 1.6 | –
2 | VRC01: broadly neutralizing anti-HIV antibody (IgG1) binding gp120, expressed in CHO cells; SEQ ID NO:9-13 | – | – | – | 90
